Assay results published in patent US20060088573A1, “Composition having action preventing or alleviating symtoms or diseases due to aging of blood vessels” (Suntory Limited, priority 2003, published 2006).

System: thoracic arteries of old rats
Assay: Acetylcholine blood vessel relaxation reaction test on thoracic artery rings after 3 months of diet
Type: in vivo, rat
Excerpt: The effect of triglyceride (arachidonic acid-containing oil (SUNTGA40S)) having arachidonic acid as a component fatty acid prepared in Reference Example 1 on the acetylcholine blood vessel relaxation reaction was investigated using rats. As the test groups of old rats, 15 19-month old male Fischer rats were divided into a control diet group (8 rats: OC group) and a SUNTGA40S compound diet group (7 rats: OA group).
The amount of intake of rats was about 20 g and the daily intake of SUNTGA40S per rat was 100 mg. Of the total fatty acids bonded with the arachidonic acid-containing oil (SUNTGA40S) prepared in Reference Example 1, 40% is arachidonic acid, so the daily intake of arachidonic acid per rat became 40 mg. This 40 mg corresponds to 133 mg/60 kg/day converted to human intake.
In the third month of raising (in the case of old rats, 22-month age and in the case of young rats, four-month age), the thoracic arteries were excised. Part was used for the in vitro blood vessel relaxation reaction test, while the remaining blood vessels were used for analysis of the fatty acid composition. […]

With `CCCCC/C=C\C/C=C\C/C=C\C/C=C\CCCC(=O)OC(COC(=O)CCCCCCC)COC(=O)CCCCCCC` [8A8, 1,3-capryloyl-2-arachidonoyl-glycerol] the “average blood vessel relaxation rate by acetylcholine 10^-7M” value (old male Fischer rats (22-month age), 8A8 diet 3 months (40 mg arachidonic acid/rat/day), old control diet 52.3%, young control diet 80.5%) was 62.7% and the “blood vessel relaxation response” value (old rats, 8A8 diet 3 months, vs old rats on control diet) was “improved”.
